Assay results from patent US20230354862A1, “ANTI-DIABETIC COMPOSITION CONTAINING BEET MIXTURE AS ACTIVE INGREDIENT” (BAE RYEO INNOVATION CO., LTD., priority 2021, published 2023).

Columns and labels:
SD rats [1] = assay: Oral starch tolerance test (OATT); format: in vivo, rat
Description: As an experimental food, normal mouse feed (Purina Lab Rodent Chow #38057, Purina Co., Seoul Korea) was fed, and during the acclimatization period, filtered water was replaced with fresh one and the animals were allowed access ad libitum to water. During the breeding period, the animals were kept under the following conditions: temperature, 23±1° C.; humidity, 50±5%; noise, 60 phone or less; lighting time, 08:00 to 20:00 (12 hours a day); illumination, 150 to 300 Lux; 10 to 12 ventilations per hour. This experiment was conducted in compliance with the Animal Experimental Ethics Regulations. After completion of the acclimatization period, the experimental animals were divided into groups using the randomized block design based on fasting blood glucose that the mean values between the groups were uniform, and then the animals were marked using an ear punch. […] Changes in blood glucose levels in each group were analyzed based on the measured blood glucose levels. All experimental results were calculated as mean±standard error (mean±S.E.) using the statistical program (SPSS ver. 12.0, SPSS Inc., Chicago, IL, USA). […]

SD rats [2] = assay: Oral sucrose tolerance test (OSTT); format: in vivo, rat; details: 3 mg/kg acarbose (A 3)
Description: As an experimental food, normal mouse feed (Purina Lab Rodent Chow #38057, Purina Co., Seoul Korea) was fed, and during the acclimatization period, filtered water was replaced with fresh one and the animals were allowed access ad libitum to water. During the breeding period, the animals were kept under the following conditions: temperature, 23±1° C.; humidity, 50±5%; noise, 60 phone or less; lighting time, 08:00 to 20:00 (12 hours a day); illumination, 150 to 300 Lux; 10 to 12 ventilations per hour. This experiment was conducted in compliance with the Animal Experimental Ethics Regulations. After completion of the acclimatization period, the experimental animals were divided into groups using the randomized block design based on fasting blood glucose that the mean values between the groups were uniform, and then the animals were marked using an ear punch. The animals were divided into a normal group, a control group, a group to which 10 mg/kg of the beet mixture was administered (10 mg/kg Beta vulgaris mixture group), a group to which 30 mg/kg of the beet mixture was administered (30 mg/kg Beta vulgaris mixture group), a group to which 30 mg/kg of the beet mixture was administered (30 mg/kg Beta vulgaris mixture group), and a positive control group (3 mg/kg acarbose), each consisting of 8 animals. Using these groups, an oral sucrose tolerance test (OSTT) and an oral starch tolerance test (OATT) were conducted. […] Changes in blood glucose levels in each group were analyzed based on the measured blood glucose levels. All experimental results were calculated as mean±standard error (mean±S.E.) using the statistical program (SPSS ver. 12.0, SPSS Inc., Chicago, IL, USA). Statistically significant differences between experimental groups were tested using a one-way analysis of variance test (ANOVA), and in case of significance (p<0.05), a post-test was performed with the Duncan's multiple range test.

db/db mice [3] = assay: Weekly biomarker analysis in type 2 diabetes model (body weight, food and water intake, blood glucose); format: in vivo, mouse; details: 300 mg/kg metformin (Met 300)
Text: (§1) As experimental animals, 5-week-old specific-pathogen free (SPF) male db/db mice were obtained from Central Laboratory Animal, Inc. (Seoul, Korea), and acclimated for 1 week before use in the experiment. As an experimental food, normal mouse feed (Purina Lab Rodent Chow #38057, Purina Co., Seoul Korea) was fed, and during the acclimatization period, filtered water was replaced with fresh one daily and the animals were allowed access ad libitum to water. During the breeding period, the animals were kept under the following conditions: temperature, 23±1° C.; humidity, 50±5%; noise, 60 phone or less; lighting time, 08:00 to 20:00 (12 hours a day); illumination, 150 to 300 Lux; 10 to 12 ventilations per hour. This experiment was conducted in compliance with the Animal Experimental Ethics Regulations.
(§2) After completion of the acclimatization period, the experimental animals were divided into groups using the randomized block design based on fasting blood glucose that the mean values between the groups were uniform, and then the animals were marked using an ear punch. The animals were divided into a normal group, a control group, a group to which 10 mg/kg of the beet mixture was administered (10 mg/kg Beta vulgaris mixture group), a group to which 30 mg/kg of the beet mixture was administered (30 mg/kg Beta vulgaris mixture group), a group to which 30 mg/kg of the beet mixture was administered (30 mg/kg Beta vulgaris mixture group), and a positive control group (300 mg/kg metformin), each consisting of 8 animals. Each sample was orally administered 5 times a week for 3 weeks.
Weekly body weight and blood sugar level were all measured once a week at a certain time, and food intake and water intake were measured the next day after feeding certain amounts of food and water once a week. Weekly blood glucose levels were measured using blood collected from the caudal veins using a blood glucose meter (AutoCheck, Diatech Korea) at a certain time every week. […]
(§3) All experimental results were calculated as mean±standard error (S.E.) using SPSS ver. […]

db/db mice [4] = assay: Oral glucose tolerance test in type 2 diabetes model; format: in vivo, mouse; details: 300 mg/kg metformin (Met 300)
Text: as §1
(§4) After completion of the acclimatization period, the experimental animals were divided into groups using the randomized block design based on fasting blood glucose that the mean values between the groups were uniform, and then the animals were marked using an ear punch. […]
as §3

db/db mice [5] = assay: Glycated hemoglobin (HbA1c) analysis in type 2 diabetes model; format: in vivo, mouse; details: after 3 weeks, 300 mg/kg metformin (Met 300)
Text: as §1, §4, §3

db/db mice [6] = assay: Tissue weight analysis in type 2 diabetes model; format: in vivo, mouse; details: 300 mg/kg metformin (Met 300)
Text: as §1, §2
(§5) Weekly body weight and blood sugar level were all measured once a week at a certain time, and food intake and water intake were measured the next day after feeding certain amounts of food and water once a week. Weekly blood glucose levels were measured using blood collected from the caudal veins using a blood glucose meter (AutoCheck, Diatech Korea) at a certain time every week. For autopsy, blood was collected from the abdominal vena cava after inhalation anesthesia and used for blood analysis, and the liver, epididymal fat, pancreas, and kidney were harvested and weighed.
(§6) All experimental results were calculated as mean±standard error (S.E.) using SPSS ver. 12.0 (SPSS Inc., Chicago, IL, USA). Statistically significant differences between experimental groups were tested using a one-way analysis of variance test (ANOVA), and in case of significance (p<0.05), a post-test was performed with the Duncan's multiple range test.

db/db mice [7] = assay: Hematological (serum) analysis in type 2 diabetes model; format: in vivo, mouse; details: 300 mg/kg metformin (Met 300)
Text: as §1, §2, §5
Blood was collected from the abdominal vena cava, placed in conical tubes, coagulated for 30 minutes at room temperature, and then centrifuged at 3,000 rpm for 10 minutes. Analysis of blood fructosamine, TC, TG, LDL-C, HDL-C, and VLDL levels were performed by KPNT (Cheongju, Korea), and insulin analysis was performed using an ELISA kit (Crystalchem, USA). HOMA-IR and HOMA-beta levels were calculated based on the blood analysis results.
as §6

db/db mice [8] = assay: Histological analysis of β-cell area (insulin immunostaining of pancreas); format: in vivo, mouse; details: 300 mg/kg metformin (Met 300)
Text: as §1, with “Regulations. […]” for “Regulations.”
Analysis of the islets of Langerhans in the pancreatic tissue was performed by immunostaining. […] After washing twice with TBST buffer for 5 min, samples were reacted with 2.5% normal goat serum for blocking (Vector, USA) for 20 min, and then the blocking reagent and working insulin antibody (Cell Signaling, MA, USA) solution (2 to 10 μl of antibody to 1 ml of Ready-To-Use 2.5% normal goat serum for blocking) was reacted at 4° C. overnight. […]
as §3

C[C@H]1O[C@H](O[C@H]2[C@H](O)[C@@H](O)[C@@H](O[C@H]3[C@H](O)[C@@H](O)C(O)O[C@@H]3CO)O[C@@H]2CO)[C@H](O)[C@@H](O)[C@@H]1N[C@H]1C=C(CO)[C@@H](O)[C@H](O)[C@H]1O (stereo partly drawn) [acarbose]
change in blood glucose after starch administration (AUC) (SD rats [1]; 3 mg/kg acarbose (A 3)): 197.32 ± 7.12 mg/dL | blood glucose level at 30 min after starch administration (SD rats [1]; 3 mg/kg acarbose oral (A 3)): 90.63 ± 3.80 mg/dL | blood glucose level at 30 min after sucrose administration (SD rats [2]): 95.88 ± 3.20 mg/dL | blood glucose level at 120 min after sucrose administration (SD rats [2]): 80.38 ± 1.76 mg/dL | change in blood glucose level after sucrose administration (AUC) (SD rats [2]): 197.32 ± 7.12 mg/dL

CN(C)C(=N)N=C(N)N [metformin]
blood glucose level at 1 week after sample administration (db/db mice [3]): 167.0 ± 19.1 mg/dL | blood glucose level at 3 weeks after sample administration (db/db mice [3]): 238.8 ± 21.9 mg/dL | body weight at week 3 (db/db mice [3]): 34.04 ± 0.35 g | blood glucose level at 30 min after oral glucose administration (db/db mice [4]): 382.0 ± 31.0 mg/dL | change in blood glucose level after glucose administration (OGTT AUC) (db/db mice [4]): 778.06 ± 262.53 mg/dL | HbA1c level (db/db mice [5]): 6.79±0.29% | kidney tissue weight (db/db mice [6]; after 3 weeks): 0.303 ± 0.008 g | liver tissue weight (db/db mice [6]; after 3 weeks): 1.97 ± 0.06 g | epididymal fat tissue weight (db/db mice [6]; at autopsy): 1.761 ± 0.038 g | pancreatic tissue weight (db/db mice [6]; at autopsy): 0.116 ± 0.005 g | HOMA-IR level (insulin resistance) (db/db mice [7]): 0.975±0.199 | HOMA-β level (insulin secretion ability) (db/db mice [7]): 6.863±0.404 | serum HDL cholesterol level (db/db mice [7]): 105.09 ± 2.63 mg/dL | serum fructosamine level (db/db mice [7]): 319.13 ± 10.89 µmol/L | serum total cholesterol level (db/db mice [7]): 126.50 ± 2.24 mg/dL | LDL cholesterol level (db/db mice [7]; after 3 weeks): 12.94 ± 0.84 mg/dL | serum insulin level (db/db mice [7]; after 3 weeks): 12.94 ± 0.84 ng/mL | serum triglyceride level (db/db mice [7]; after 3 weeks): 236.13 ± 11.87 mg/dL | β-cell area (db/db mice [8]): 83242.23±11320.56 μm^2
